Where “and” joins values, the source holds several entries; their conditions need not be identical. Equal entries are not always repeated. Entries after “also recorded” stand apart in the source; their conditions may differ. Where two headings read alike, the source gives them in different places.
What was measured:
[1] = Pharmacokinetic study in Balb/c mice, intravenous administration; format: in vivo; parameters: Kel (Lambda_z): unit not given here; conditions: for Plasma concentration, Group A-D: single animals; for half-life: iv
Description: Study design, animal selection, handling and treatment were all in accordance with the study protocols and institutional animal care and use guidelines. Male Balb/c mice (9-10 weeks old, body weight 22.3 to 38.1 g and average body weight across all groups 31.4 g, SD=3.20 g) were used in this study. The animals were randomly assigned to the treatment groups before the pharmacokinetic study; all animals were fasted for 4 h before dosing. Six time points for PO (15, 30, 60, 120, 240 and 360 min) and IV (5, 15, 30, 60, 120 and 240 min) routes were used in this pharmacokinetic study. Each of the PO and IV time point treatment groups included 4 animals. There was also control group of 2 animals. Dosing was done according to the treatment schedules outlined in Table 3. Mice were injected IV with 2,2,2-tribromoethanol at the dose of 150 mg/kg prior to taking blood. Blood collection was performed from the orbital sinus in microtainers containing K2EDTA. Animals were sacrificed by cervical dislocation after blood samples collection. All samples were immediately prepared, flash-frozen and stored at −70° C. until subsequent bioanalysis.
Samples Processing Plasma samples ([…]) were mixed with […] of IS solution. After mixing by pipetting and centrifuging for 4 min at 6,000 rpm, […] of each supernatant was injected into LC-MS/MS system. Solution of compound IS-02-03 (200 ng/ml in acetonitrile-methanol mixture, 1:1, v/v) was used as internal standard (IS) for quantification of C10 in plasma samples. Samples Analysis The concentrations of C10 were determined using high performance liquid chromatography/tandem mass spectrometry (HPLC-MS/MS). Shimadzu H PLC system comprised of 2 isocratic pumps LC-10Advp, an autosampler SIL-HTc, a sub-controller FCV-14AH and a degasser DGU-14A. Mass spectrometric analysis was performed using an API 3000 (triple-quadrupole) instrument from AB Sciex (Canada) with an electro-spray (ESI) interface. The data acquisition and system control was performed using Analyst 1.5.2 software from AB Sciex. HPLC-MS/MS Conditions
The pharmacokinetic data analysis was performed using non-compartmental, bolus injection or extravascular input analysis models in WinNonlin 5.2 (PharSight). Data below LLOQ were presented as missing to improve validity of T1/2 calculations. No outlier data points were removed from calculations. The bioavailability for the peroral route was calculated as: […]

[2] = Metabolic stability in mouse liver microsomes; conditions: for % Remain. Mean of 2: with NADPH; for % Remain. without cofactor, Mean of 2: without NADPH cofactor
Description: Microsomal incubations were carried out in 96-well plates in 5 aliquots of […] each (one for each time point). […] Control incubations were performed replacing the NADPH-cofactor system with PBS. […] Incubations were performed in duplicates. Five time points over 40 minutes had been analyzed. The reactions were stopped by adding 12 volumes of 90% acetonitrile-water to incubation aliquots, followed by protein sedimentation by centrifuging at 5500 rpm for 3 minutes. […]. Supernatants were analyzed using the HPLC system coupled with tandem mass spectrometer.
The elimination constant (kel), half-life (t½) and intrinsic clearance (Clint) were determined in plot of In(AUC) versus time, using linear regression analysis (In order to indicate the quality of the linear regression analysis, the R (correlation coefficient) values are provided. In some cases, the last time point is excluded from the calculations to ensure acceptable logarithmic linearity of decay): […]

DENV, ZIKV and KUNV = assay: Inhibition of flavivirus infection, summary bounds over DENV, ZIKV and KUNV; format: cell-based
Description: Vero cells were seeded into 24-well plates at a density of 2×10^5 cells/well and grown overnight in culture medium at 37° C. with 5% CO2 prior to infection with RSV, KUNV, ZIKV as indicated. BHK-21 cells were used for DENV1-4. The virus inoculum was removed and replaced with semisolid overlays of 0.8% aquacide II (Calbiochem) in DMEM+2% FBS, and the mixture was incubated at 37° C. with 5% CO2. After 3-5 days, the cells were fixed with neutral buffered formalin (Sigma) for 3 h at room temperature, rinsed with tap water, and stained with 1% crystal violet for 10 min. The stain was removed by rinsing the cells with tap water, and the viral plaques were counted visually. Dose-response curves were plotted from the plaque number versus the log of the concentration of the test compounds.
(§1) Viral RNA was extracted using Isolate II RNA extraction kit (Bioline), and the absolute number of RNA copies determined by Taqman One Step RT-qPCR (Applied Biosystems) by extrapolation from a standard curve generated from in vitro—transcribed virus RNA.
(§2) It was decided to test the ability of C10 to inhibit the flaviviruses DENV1-4, KUNV and ZIKV, in addition to the paramyxovirus RSV, as a control.

KUNV = assay: RT-qPCR analysis of virus genomes, KUNV; format: cell-based, Kunjin virus; conditions: West Nile virus
Description: Vero cells were infected with KUNV at an MOI of 1 for 2 h (post infection), after which virus was removed, and fresh maintenance medium containing 2% FCS together with the indicated concentration of C10 added. For co-treat condition, Vero cells were infected with KUNV at an MOI of 1 in the presence of C10 for 2 h, followed by removal of the virus/C10 inoculums, and addition of fresh 2% fetal calf serum maintenance medium.
as §1, §2

[3] = male, Balb/c, mouse, plasma, IV 5 mg/kg

CCN1/C(=C\C=C\c2sc3cc(NC(C)=O)ccc3[n+]2CC)Sc2cc(NC(C)=O)ccc21.[I-] [C10, 6-acetamido-2-((1E,3E)-3-(6-acetamido-3-ethylbenzo[d]thiazol-2(3H)-ylidene)prop-1-en-1-yl)-3-ethylbenzo[d]thiazol-3-ium iodide]
Kel (Lambda_z) ([1]; IV 5 mg/kg): 0.00581
Vd (Vz_obs) ([1]; IV 5 mg/kg): 14.1 L/kg
Plasma concentration, Mean ([1]; IV 5 mg/kg, 5 min): 2690 ng(ml)
Plasma concentration, Group A-D ([1]; IV 5 mg/kg, 5 min, 5 mg/kg): 2780 ng(ml) and 2310 ng(ml) and 2606 ng(ml) and 3063 ng(ml)
Plasma concentration, Mean ([1]; IV 5 mg/kg, 15 min): 311 ng(ml)
Plasma concentration, Group A-D ([1]; IV 5 mg/kg, 15 min, 5 mg/kg): 185 ng(ml) and 316 ng(ml) and 521 ng(ml) and 221 ng(ml)
Plasma concentration, Mean ([1]; IV 5 mg/kg, 30 min): 154 ng(ml)
Plasma concentration, Group A-D ([1]; IV 5 mg/kg, 30 min, 5 mg/kg): 109 ng(ml) and 152 ng(ml) and 189 ng(ml) and 164 ng(ml)
Plasma concentration, Mean ([1]; IV 5 mg/kg, 60 min): 109 ng(ml)
Plasma concentration, Group A-D ([1]; IV 5 mg/kg, 60 min, 5 mg/kg): 93 ng(ml) and 160 ng(ml) and 89 ng(ml) and 92 ng(ml)
Plasma concentration, Mean ([1]; IV 5 mg/kg, 120 min): 60 ng(ml)
Plasma concentration, Group A-D ([1]; IV 5 mg/kg, 120 min, 5 mg/kg): 69 ng(ml) and 44 ng(ml) and 59 ng(ml) and 67 ng(ml)
Plasma concentration, Mean ([1]; IV 5 mg/kg, 240 min): 43 ng(ml)
Plasma concentration, Group A-D ([1]; IV 5 mg/kg, 240 min, 5 mg/kg): 47 ng(ml) and 43 ng(ml) (2×) and 40 ng(ml)
tolerability in mice ([1]; IV, 5 mg/kg): tolerated; also recorded: not toxic at high concentrations
Vd ([1]; male, Balb/c, mouse, plasma, 5 mg/kg, calculated, IV, read-out: volume of distribution): 14.1 L/kg
half-life ([1]; male, Balb/c, mouse, plasma, 5 mg/kg, IV 5 mg/kg, read-out: T1/2 (HL_Lambda_z)): 1.98 h
half-life ([1]; male, Balb/c, mouse, plasma, 5 mg/kg, mice, IV administration, read-out: half-life in plasma/serum (converted)): ~2 h
Cmax [1, 3]: 2690 ng/mL
Tmax [1, 3]: 5 min
AUC(0-t) ([1]; male, Balb/c, mouse, plasma, IV 5 mg/kg, read-out: AUC0→t = 240 min (AUClast) (converted)): 892 ng·h/mL
AUC(0-inf) ([1]; male, Balb/c, mouse, plasma, IV 5 mg/kg, read-out: AUC0→∞ (AUCINF_obs) (converted)): 1020 ng·h/mL
clearance ([1]; male, Balb/c, mouse, plasma, IV 5 mg/kg, read-out: CL (Cl_obs)): 82.1 mL/min/kg
MRT inf ([1]; male, Balb/c, mouse, plasma, IV 5 mg/kg, read-out: MRT (MRTinf) (converted)): 1.36 h
MRT last ([1]; male, Balb/c, mouse, plasma, IV 5 mg/kg, read-out: MRT (MRTlast) (converted)): 0.59 h
half-life at 2 mM ([2]; male, Balb/c, mouse, microsomes, pH 7.4): 5.79 h
CIint ([2]; mouse liver microsomes): 5 µL/min/mg
Kel ([2]; mouse liver microsomes): 0.002 min⁻¹
stability in mouse hepatic microsomal test system ([2]; mouse, microsomes): good stability
% Remain. Mean of 2 ([2]; 0.42 mg protein per ml, 0 min): 100%
% Remain. Mean of 2 ([2]; 10 min): 100%
% Remain. Mean of 2 ([2]; 20 min): 96%
% Remain. Mean of 2 ([2]; 30 min): 95%
% Remain. Mean of 2 ([2]; 40 min): 88%
% Remain. without cofactor, Mean of 2 ([2]; 0 min): 100%
% Remain. without cofactor, Mean of 2 ([2]; 40 min): 86%
EC50 (DENV, ZIKV and KUNV; c.t., DENV, ZIKV and KUNV infection, read-out: EC50): < 500 nM
EC50 (DENV, ZIKV and KUNV; c.t., read-out: EC50, infectious virus (plaque-forming units)): < 100 nM
EC50 (DENV, ZIKV and KUNV; c.t., read-out: EC50, virus genomes by RT-qPCR): < 500 nM
EC50 (DENV, ZIKV and KUNV; p.i., DENV, ZIKV and KUNV infection, read-out: EC50): < 2000 nM
EC50 (DENV, ZIKV and KUNV; p.i., read-out: EC50, virus genomes by RT-qPCR): < 1700 nM
EC50 (DENV, ZIKV and KUNV; read-out: EC50, infectious virus (plaque-forming units), p.i.): < 1500 nM
EC50 (DENV, ZIKV and KUNV; read-out: EC50s for co-addition, all serotypes of DENV, ZIKV and WNV, plaque assays or qPCR): 10 to 100 nM
EC50 (KUNV; read-out: EC50 from RT-qPCR analysis, KUNV, c.t.): 310 ± 180 nM
EC50 (KUNV; read-out: EC50 from RT-qPCR analysis, KUNV, p.i.): 1680 ± 640 nM
